Key:
Assay type in all cases: cell-based
[1] = tested on: Citrobacter freundii E8; assay: standard MIC test, Citrobacter freundii E8 (DST agar+5% horse blood)
[2] = tested on: Enterobacter cloacae M 1; assay: standard MIC test, Enterobacter cloacae M 1 (DST agar+5% horse blood); conditions: M1
[3] = tested on: E. coli 0111; assay: standard MIC test, E. coli 0111 (DST agar+5% horse blood); conditions: Escherichia coli
[4] = tested on: Klebsiella aerogenes A; assay: standard MIC test, Klebsiella aerogenes A (DST agar+5% horse blood)
[5] = tested on: Proteus mirabilis 0977; assay: standard MIC test, Proteus mirabilis 0977 (DST agar+5% horse blood)
[6] = tested on: Proteus morganii I 580; assay: standard MIC test, Proteus morganii I 580 (DST agar+5% horse blood); conditions: Morganella morganii, I580
[7] = tested on: Proteus rettgeri WM 16; assay: standard MIC test, Proteus rettgeri WM 16 (DST agar+5% horse blood); conditions: Providencia rettgeri, WM16
[8] = tested on: Proteus vulgaris WO 91; assay: standard MIC test, Proteus vulgaris WO 91 (DST agar+5% horse blood); conditions: WO91
[9] = tested on: Ps aeruginosa A; assay: standard MIC test, Ps aeruginosa A (DST agar+5% horse blood)
[10] = tested on: Salmonella typhimurium CT10; assay: standard MIC test, Salmonella typhimurium CT10 (DST agar+5% horse blood); conditions: Salmonella enterica
[11] = tested on: Serratia marcescens US20; assay: standard MIC test, Serratia marcescens US20 (DST agar+5% horse blood)
[12] = tested on: Shigella sonnei MB 11967; assay: standard MIC test, Shigella sonnei MB 11967 (DST agar+5% horse blood); conditions: MB11967
[13] = tested on: Staph. aureus Oxford; assay: standard MIC test, Staph. aureus Oxford (DST agar+5% horse blood); conditions: Staphylococcus aureus
[14] = tested on: Staph. aureus Russell; assay: standard MIC test, Staph. aureus Russell (DST agar+5% horse blood); conditions: Staphylococcus aureus
[15] = tested on: Staph. aureus 1517; assay: standard MIC test, Staph. aureus 1517 (DST agar+5% horse blood); conditions: Staphylococcus aureus
[16] = tested on: Strep. faecalis I; assay: standard MIC test, Strep. faecalis I (DST agar+5% horse blood); conditions: Enterococcus faecalis

SMILES: CCSC(C)[C@H]1C(=O)N2C(C(=O)[O-])=C(S/C=C/NC(C)=O)C[C@H]12.[Na+] (stereo partly drawn) [e52, Sodium (5R,6R)-3-[(E)-2-acetamidoethenylthio]-6-(-1-ethylthio-ethyl)-7-oxo-1-azabicyclo[3.2.0]hept2-ene-2-carboxylate]
- MIC [1]: 3.1 µg/mL
- MIC [2]: 12.5 µg/mL
- MIC [3]: 3.1 µg/mL
- MIC [4]: 0.8 µg/mL
- MIC [5]: 12.5 µg/mL
- MIC [6]: 12.5 µg/mL
- MIC [7]: 6.25 µg/mL
- MIC [8]: 6.25 µg/mL
- MIC [9]: 100 µg/mL
- MIC [10]: 6.25 µg/mL
- MIC [11]: 6.25 µg/mL
- MIC [12]: 3.1 µg/mL
- MIC [13]: 0.8 µg/mL
- MIC [14]: 0.8 µg/mL
- MIC [15]: 6.25 µg/mL
- MIC [16]: 50 µg/mL
